2 compounds from patent US20230158005A1 (priority 2020, published 2023) can be followed below.

In this experiment the test system is A/Washington/29/2009 (H1N1) H275Y. It is filed as cell-based, influenza A virus.

“And” between values parts separate entries of the source, which are not always exact repeats. Equal values may be shown once.

Take `CC1=C(COCCC(C)(C)C)C(=O)N(Nc2ccc(C(F)(F)F)c(Cl)n2)C1=O` [felezonexor, 3-[(3,3-dimethylbutoxy)methyl]-1-{[6-chloro-5-(trifluoromethyl) (2-pyridyl)]amino}-4-methylazoline-2,5-dione]: the “Virus titer AVG” value was 2.67 log10TCID50/mL and 3.83 log10TCID50/mL and 4.50 log10TCID50/mL; the “Virus titer, replicates 1-3” value was 2.75 log10TCID50/mL (2×) and 3.50 log10TCID50/mL and 4.50 log10TCID50/mL (3×) and 2.50 log10TCID50/mL and 3.75 log10TCID50/mL and 4.25 log10TCID50/mL.

Regarding `CCOC(=O)C1=C[C@@H](OC(CC)CC)[C@H](NC(C)=O)[C@@H](N)C1` [Oseltamivir, oseltamivir, reference compound], the “DIF (Difference from Control)” value is -0.92 log10TCID50/mL; the “Virus titer AVG” value was determined as 3.92 log10TCID50/mL; the “Virus titer, replicates 1-3” value was 3.75 log10TCID50/mL (2×) and 4.25 log10TCID50/mL.
